Test results as given in patent US9272985B2, “Antibacterial hydroxyphenyl compound” (FAB PHARMA S.A.S., priority 2009, dated 2016).
In brackets after ≈: the same amount, converted by molar mass. Like-named read-outs stand apart in the source and are kept apart here.

Key:
[1] = system: S. aureus CIP 54.146; experiment: MIC determination using broth microdilution method; assay type: cell-based; conditions: Staphylococcus aureus, CIP54 / MSSA; MSSA CIP 54.146; range over a number of batches; read-out: MIC (μg/ml) (Broth microdilution) S. aureus CIP 54.146
Description: The compound of the invention is a useful antibacterial agent having a selective spectrum of activity in vitro against bacterial strains relying on FabI and related targets. […] The activity is presented as Minimum Inhibitory Concentration (MIC) expressed in μg/ml and was determined using broth microdilution or Agar dilution methods.
Antibacterial activity was determined on MSSA CIP 54.146 provided by the Centre de Ressources Biologiques de l'Institut Pasteur
This protocol is compliant with Clinical Laboratory Standards Institute (CLSI) methodology as described in M7-A7 document of the CLSI. The compound to be tested is diluted according to a geometric series of reason 2 in pure DMSO. Dilutions are transferred in sterile polystyrene microplates, followed by mid-log phase bacteria in cation-adjusted Muller-Hinton broth (ca-MHB, Fluka, Reference 90922) with a final inoculum of 5×10^5 cfu/ml. Microplates are incubated overnight at 35° C. MIC is defined as the lowest concentration of antimicrobial agent that completely prevents visible bacterial growth. All manipulations, but compound handling (in pure DMSO), are performed under sterile conditions. The final concentration of DMSO in the plates is 2%.

[2] = molecular target: T1, FabI from S. aureus (Staphylococcus aureus, UniProt Q6GI75); experiment: In vitro inhibition of recombinant S. aureus FabI enzyme (fluorescence based assay); assay type: biochemical
T1 construct: made in house
T1 sequence (Q6GI75 1-256): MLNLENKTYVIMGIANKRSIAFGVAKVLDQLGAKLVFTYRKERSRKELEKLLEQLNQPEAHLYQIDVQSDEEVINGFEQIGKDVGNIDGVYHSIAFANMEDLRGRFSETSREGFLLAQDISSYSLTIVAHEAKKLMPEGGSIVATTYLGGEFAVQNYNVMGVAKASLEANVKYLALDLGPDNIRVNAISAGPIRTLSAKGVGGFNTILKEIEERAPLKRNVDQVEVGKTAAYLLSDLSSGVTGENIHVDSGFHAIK
Description: (§1) Compound inhibitory activity of FabI enzyme is measured in vitro by the IC50 determination using a fluorescence based assay.
The protein FabI from S. aureus is prepared and purified using standard methods for recombinant protein expression after cloning of the gene in a prokaryotic expression vector.
(§2) The biochemical activity of the FabI enzyme is assessed using the following method.
The assay buffer “AB” contained 50 mM ADA (N-(2-acetamido)iminodiacetic acid monosodium salt) pH 6.5, 1 m M dithiothreitol, 0.006% Triton-X100 and 50 mM NaCl. The following components are added in a white polystyrene Costar plate (Ref 3912) up to a final volume of 55.5 μL: 1.5 μL DMSO or inhibitor dissolved in DMSO and 54 μL of a FabI/NADPH/NADP+ mixture in AB. […] Fluorescence intensity of NADPH (λex=360 nm, λem=520 nm) is measured immediately after t-O-NAC addition (T0), and approximately 50 min later (T50) by a Fluostar Optima (BMG) so as to achieve ±30% of NADPH conversion. Enzyme activity is calculated by first subtracting T0 signal to T50 and then subtracting background signal (FabI=0). Percentages of inhibition are calculated against untreated samples (Inhibitor=0) and IC50 are fitted to a classical Langmuir equilibrium model using XLFIT (IDBS).

[3] = Formulated solubility in 20% hydroxypropyl beta cyclodextrin aqueous solution with 5% dextrose; assay type: physicochemical; conditions: for solubility at 24 h: aqueous with cosolvent or surfactant or cyclodextrin, thermodynamic from solid, 20% hydroxypropyl beta cyclodextrin aqueous solution with 5% dextrose, 20° C.
Description: (§3) For each medium, the saturation of the medium is obtained by adding an excess of investigated compound to a given volume of test medium. The suspension is stirred at 20° C. for 24 h, the supernatant is then isolated and diluted to allow its injection into a chromatographic system. The concentration of the compound in solution for each medium is determined by external standardization.
Solubility was also investigated in a 20% hydroxypropyl beta cyclodextrin aqueous solution with 5% dextrose and the results are shown in Table 4.

[4] = molecular target: E. coli FabI enzyme (Escherichia coli, UniProt P0AEK4); experiment: In vitro inhibition of recombinant E. coli FabI enzyme; assay type: biochemical
Description: as §1, §2
The assay buffer “AB” contained 50 mM ADA (N-(2-acetamido)iminodiacetic acid monosodium salt) pH 6.5, 1 m M dithiothreitol, 0.006% Triton-X100 and 50 mM NaCl. The following components are added in a white polystyrene Costar plate (Ref 3912) up to a final volume of 55.5 μL: 1.5 μL DMSO or inhibitor dissolved in DMSO and 54 μL of a FabI/NADPH/NADP+ mixture in AB. After 60 min of pre-incubation at room temperature, the reaction is started by addition of 5 μL of trans-2-octenoyl N-acetylcysteamine thioester (t-o-NAC) to a final volume of 60.5 μL. […] Fluorescence intensity of NADPH (λex=360 nm, λem=520 nm) is measured immediately after t-O-NAC addition (T0), and approximately 50 min later (T50) by a Fluostar Optima (BMG) so as to achieve ±30% of NADPH conversion. Enzyme activity is calculated by first subtracting T0 signal to T50 and then subtracting background signal (FabI=0). Percentages of inhibition are calculated against untreated samples (Inhibitor=0) and IC50 are fitted to a classical Langmuir equilibrium model using XLFIT (IDBS).

[5] = Aqueous solubility at pH 7.4 buffer; assay type: physicochemical; conditions: for solubility at 24 h: aqueous buffer, thermodynamic from solid, 20° C.
Description: as §3

[6] = system: MSSA, MRSA and VISA infections; experiment: Murine infection model; assay type: in vivo
From the text: (§4) Such increased solubility provides the significant advantage of allowing the compound of the invention to be administered intravenously.

[7] = molecular target: hERG (Homo sapiens, UniProt Q12809); experiment: hERG tail current amplitude in vitro; assay type: cell-based; conditions: after rundown subtraction
[8] = Functional observation battery and evaluation of respiration function in rats; assay type: in vivo; conditions: compared to vehicle only
[9] = Panel of 112 in vitro binding assays and 42 in vitro enzyme assays; conditions: except human norepinephrine transporter
[10] = In vivo studies in rats and dogs (adverse effects)
[11] = molecular target: human norepinephrine transporter (Homo sapiens, UniProt P23975); experiment: In vitro binding/enzyme panel: human norepinephrine transporter
[12] = system: Streptococcus and Enterococcus; experiment: Activity against other Gram-positive pathogens not dependent upon FabI; assay type: cell-based
[13] = system: MSSA, MRSA, VISA and VRSA strains; experiment: In vitro activity against pathogenic S. aureus strains; assay type: cell-based, Staphylococcus aureus; conditions: several pathogenic strains
From the text: as §4

[14] = system: target bacterial populations; experiment: Resistance and killing profile in target bacterial populations; assay type: cell-based
[15] = QT interval in conscious dogs after single intravenous infusion; assay type: in vivo
[16] = rats, intravenous; cited from earlier work

Sequence of E. coli FabI enzyme (P0AEK4 whole entry): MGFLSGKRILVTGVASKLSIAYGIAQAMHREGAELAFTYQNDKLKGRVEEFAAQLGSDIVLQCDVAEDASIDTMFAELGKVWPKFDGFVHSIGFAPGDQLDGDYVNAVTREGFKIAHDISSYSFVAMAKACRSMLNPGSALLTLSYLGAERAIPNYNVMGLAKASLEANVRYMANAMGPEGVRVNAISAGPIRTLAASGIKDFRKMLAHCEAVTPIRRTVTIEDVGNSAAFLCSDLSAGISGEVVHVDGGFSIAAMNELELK
Sequence of human norepinephrine transporter (P23975 whole entry): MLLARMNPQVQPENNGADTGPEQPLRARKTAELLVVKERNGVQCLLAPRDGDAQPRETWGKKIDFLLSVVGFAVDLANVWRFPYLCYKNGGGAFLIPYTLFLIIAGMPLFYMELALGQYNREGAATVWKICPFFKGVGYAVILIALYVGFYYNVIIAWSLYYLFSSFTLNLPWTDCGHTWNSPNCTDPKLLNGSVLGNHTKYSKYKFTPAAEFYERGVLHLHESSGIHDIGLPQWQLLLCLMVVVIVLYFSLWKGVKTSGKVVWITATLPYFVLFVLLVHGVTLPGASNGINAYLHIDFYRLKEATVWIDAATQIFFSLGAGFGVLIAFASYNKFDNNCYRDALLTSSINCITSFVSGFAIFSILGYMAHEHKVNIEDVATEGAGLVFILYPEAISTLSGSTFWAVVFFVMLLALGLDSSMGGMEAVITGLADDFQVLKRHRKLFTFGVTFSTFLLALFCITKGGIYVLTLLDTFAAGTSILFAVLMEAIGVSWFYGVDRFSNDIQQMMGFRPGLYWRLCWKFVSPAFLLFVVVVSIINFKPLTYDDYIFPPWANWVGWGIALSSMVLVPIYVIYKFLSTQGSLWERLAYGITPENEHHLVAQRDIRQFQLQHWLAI
Sequence of hERG (Q12809 whole entry): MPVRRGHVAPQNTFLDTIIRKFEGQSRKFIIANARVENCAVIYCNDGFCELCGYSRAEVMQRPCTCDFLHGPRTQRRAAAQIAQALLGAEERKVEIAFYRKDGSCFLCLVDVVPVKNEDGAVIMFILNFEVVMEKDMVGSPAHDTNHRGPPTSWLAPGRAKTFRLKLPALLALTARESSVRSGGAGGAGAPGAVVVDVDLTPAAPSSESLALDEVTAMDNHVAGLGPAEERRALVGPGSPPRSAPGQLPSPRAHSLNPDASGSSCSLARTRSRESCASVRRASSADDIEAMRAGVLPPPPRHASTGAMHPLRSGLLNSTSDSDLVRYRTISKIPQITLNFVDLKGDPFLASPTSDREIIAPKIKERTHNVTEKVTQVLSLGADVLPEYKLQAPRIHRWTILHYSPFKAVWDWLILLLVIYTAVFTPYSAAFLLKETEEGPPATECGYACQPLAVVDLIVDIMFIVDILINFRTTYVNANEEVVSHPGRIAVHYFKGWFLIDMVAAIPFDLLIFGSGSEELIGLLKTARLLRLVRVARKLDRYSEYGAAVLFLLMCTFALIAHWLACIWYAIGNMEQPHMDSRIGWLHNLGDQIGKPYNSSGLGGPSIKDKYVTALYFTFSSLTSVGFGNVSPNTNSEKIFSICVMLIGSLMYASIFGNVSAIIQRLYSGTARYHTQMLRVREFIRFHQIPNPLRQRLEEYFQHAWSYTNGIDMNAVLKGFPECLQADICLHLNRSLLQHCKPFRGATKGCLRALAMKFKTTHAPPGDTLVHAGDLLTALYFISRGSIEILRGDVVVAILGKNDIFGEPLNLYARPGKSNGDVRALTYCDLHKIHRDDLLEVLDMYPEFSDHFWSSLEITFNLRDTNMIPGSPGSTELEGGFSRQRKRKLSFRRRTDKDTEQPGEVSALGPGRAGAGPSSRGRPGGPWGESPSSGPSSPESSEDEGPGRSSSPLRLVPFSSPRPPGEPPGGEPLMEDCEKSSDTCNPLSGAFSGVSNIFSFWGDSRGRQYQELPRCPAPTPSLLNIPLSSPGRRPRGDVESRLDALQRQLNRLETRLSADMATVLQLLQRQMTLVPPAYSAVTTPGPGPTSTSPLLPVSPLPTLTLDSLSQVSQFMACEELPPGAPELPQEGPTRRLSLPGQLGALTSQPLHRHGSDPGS

## CCc1cc(O)c(Oc2cccnc2F)cc1F [Comparative Example 2, 5-Ethyl-4-fluoro-2-(2-fluoropyridin-3yloxy)phenol, reference compound]
[1]
  MIC: 0.063 µg/mL (≈ 0.251 µM)
[2]; recombinant S. aureus FabI, range over a number of batches, read-out: FabI Inhibition IC50 (μM) S. aureus
  IC50: 0.008 to 0.017 µM
[3]
  solubility at 24 h: 2400 µg/mL (≈ 9550 µM)
[4]; recombinant E. coli FabI, range over a number of batches, read-out: FabI Inhibition IC50 (μM) E. coli
  IC50: 0.019 to 0.065 µM
[5]
  solubility at 24 h: 8 µg/mL (≈ 31.8 µM)

## CCc1cc(O)c(Oc2ccc(C(N)=O)cc2F)cc1F [Example 1, 4-(4-Ethyl-5-fluoro-2-hydroxyphenoxy)-3-fluorobenzamide]
[1]
  MIC: 0.063 to 0.125 µg/mL (≈ 0.215 to 0.426 µM)
[6]
  In vivo activity in a murine model: active in vivo
[7]
  inhibition at 30 µM: 35.3%
[8]
  Tolerability in functional observation battery and respiration function assays: well tolerated
[9]
  Affinity or activity in 112 in vitro binding assays and 42 in vitro enzyme assays: devoid of any significant affinity or activity
[2]
  IC50: 0.012 to 0.014 µM
[3]; 20% hydroxypropyl beta cyclodextrin with 5% dextrose
  Fold more soluble than comparative example 2: ~5 fold
[3]
  solubility at 24 h: 11300 µg/mL (≈ 38500 µM)
[10]
  Adverse effects during in vivo studies: no major adverse effects were reported
[11]
  Inhibition of human norepinephrine transporter: 88%
[4]
  IC50: 0.058 to 0.068 µM
[12]
  Activity against Streptococcus and Enterococcus: no activity
[13]
  In vitro activity against MSSA, MRSA, VISA and VRSA strains: highly active
[14]; target bacterial populations
  Type of antibacterial effect: bacteriostatic or slow bactericidal effect
[14]; target bacterial populations exposed to the compound
  Spontaneous mutation rate towards drug resistance: approximately 10^−9
[14]; target microbial populations
  Cross resistance with glycopeptides (Vancomycin) and oxazolidinones (Linezolid): no cross resistance
[5]
  Fold more soluble than comparative example 2: two fold
  solubility at 24 h: 16 µg/mL (≈ 54.6 µM)
[15]; after the end of infusion
  Corrected QT after the end of infusion versus control group: generally lower than in the control group
[15]; single intravenous infusion at 25, 50 and 100 mg/kg
  QT interval prolongation: no QT interval prolongation was observed

## Oc1cc(Cl)ccc1Oc1ccc(Cl)cc1Cl [Triclosan]
[16]
  LD50: 29 mg/kg
